Data set [1] concerns HeLa cells. As to the kind of experiment: Cytotoxicity against mammalian cells (MTS assay). The data set is classed as cell-based. An outline of the steps:
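HeLa cells exposed 72 h in RPMI1640 to compounds at 64 to 0.125 μg/ml, in triplicate. Viability measured as mitochondrial activity by MTS, and CC50 taken against a standard curve of serially diluted untreated cells.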
On the technique in general: Tetrazolium assays rely on reduction of a dye to a coloured formazan, in cell work by metabolically active cells.

Data set [2] concerns A. baumanii ATCC 19606. As to the kind of experiment: Antibacterial activity (MIC, broth dilution). Type of data set: cell-based, Acinetobacter baumanii. As to conditions: CLSI, in µg/mL. An outline of the steps:
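MIC determined by broth dilution following CLSI standards, using A. baumanii ATCC 19606.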
(In general: Broth dilution looks for growth in wells or tubes with falling amounts of substance.)

The subject of data set [3] is E. faecium EF1509 (VRE). As to the kind of experiment: Antibacterial activity (MIC, broth dilution). Type of data set: cell-based. To be noted: CLSI, in µg/mL. On the procedure: (§1) Determination of the Minimal Inhibitory Concentrations (MIC) by dilution was carried out by broth dilution according to CLSI standards.
Data set [4] concerns E. aerogenes ATCC 13048. As to the kind of experiment: Antibacterial activity (MIC, broth dilution). The data set is classed as cell-based. As to conditions: CLSI. As to the method: as §1
In data set [5] the test system is P. aeruginosa PA01. Kind of data set: Antibacterial activity (MIC, broth dilution). The data set is classed as cell-based. To be noted: CLSI. As to the method:
as §1

In data set [6] the test system is P. aeruginosa X13273. As to the kind of experiment: Antibacterial activity (MIC, broth dilution). The data set is classed as cell-based. To be noted: CLSI, in µg/mL. As to the method: as §1
Data set [7] has as its system S. aureus MRSA 1094. As to the kind of experiment: Antibacterial activity (MIC, broth dilution). The data set is classed as cell-based. To be noted: CLSI. As to the method: as §1
In data set [8] the test system is S. aureus HFH-30123 (MRSA). As to the kind of experiment: Antibacterial activity (MIC, broth dilution). To be noted: CLSI. The data set is classed as cell-based. On the procedure:
as §1

The subject of data set [9] is P. aeruginosa ATCC 27853. Kind of data set: Antibacterial activity (MIC, broth dilution). The data set is classed as cell-based. As to conditions: CLSI. As to the method: as §1
Data set [10] concerns K. pneumoniae NR-15411 (KPC). As to the kind of experiment: Antibacterial activity (MIC, broth dilution). The data set is classed as cell-based. As to conditions: CLSI. As to the method:
as §1

Data set [11] concerns K. pneumoniae NR-15410 (KPC). As to the kind of experiment: Antibacterial activity (MIC, broth dilution). The data set is classed as cell-based. As to conditions: CLSI. As to the method: as §1
Data set [12] deals with E. faecium F118 (VRE). As to the kind of experiment: Antibacterial activity (MIC, broth dilution). The data set is classed as cell-based. As to conditions: CLSI, in µg/mL. As to the method:
as §1

For data set [13], the system named is E. cloacae ATCC 13047. As to the kind of experiment: Antibacterial activity (MIC, broth dilution). The data set is classed as cell-based. To be noted: CLSI. As to the method: as §1
Data set [14] can be described thus: Lipid II binding by Surface Plasmon Resonance. As to conditions: SPR, immobilized 3-Lipid II, 25°C. An outline of the steps: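 Farnesyl (3-isoprene) Lipid II amine-coupled (50 RUs) on CM5 chips. Compounds injected at 10 μM, 30 μl/min, 25°C, in 10 mM HEPES, 150 mM NaCl, 0.05% P20, pH 7.4 (± 3 mM EDTA), 10% DMSO. Signals corrected against control flow-cell; kinetics fitted from binding isotherms.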

Each structure is given as a SMILES string.

What is called Kd is the constant that tells how readily two partners part at equilibrium. Low values mean tighter binding, high ones weaker binding. As for `Cn1cc(/C=C/c2cc(-c3ccc(C(C)(C)C)cc3)cc(-c3ccc(C(C)(C)C)cc3)[o+]2)c2ccccc21.F[B-](F)(F)F` [6jc66-3], in data set [1], the “CC50% (72 h HeLa cells)” value is listed as 5.68. Moreover, in data set [2], the “Antibacterial activity (MIC) A. baumanii ATCC 19606” value is recorded as “>=64”. Also, in data set [3], the “Antibacterial activity (MIC) E. faecium EF1509 (VRE)” value came out at 4. In data set [4], this compound showed an Antibacterial activity (MIC) E. aerogenes ATCC 13048 of no less than 64 µg/mL. The compound also came in with an Antibacterial activity (MIC) P. aeruginosa PA01 in [5] of no less than 64 µg/mL. In data set [6], the “Antibacterial activity (MIC) P. aeruginosa X13273” value is “>=64”. The compound further registered an Antibacterial activity (MIC) S. aureus MRSA 1094 in data set [7] of 8 µg/mL. For the same compound, the Antibacterial activity (MIC) S. aureus HFH-30123 (MRSA) in data set [8] came out at 8 µg/mL. The same compound showed an Antibacterial activity (MIC) P. aeruginosa ATCC 27853 in data set [9] of no less than 64 µg/mL. For the same compound, the Antibacterial activity (MIC) K. pneumoniae NR-15411 (KPC) in data set [10] was no less than 64 µg/mL. In addition, the Antibacterial activity (MIC) K. pneumoniae NR-15410 (KPC) in [11] is no less than 64 µg/mL. Besides, the “Antibacterial activity (MIC) E. faecium F118 (VRE)” value in [12] was found to be 11.31. This compound also had an Antibacterial activity (MIC) E. cloacae ATCC 13047 in [13] of no less than 64 µg/mL. This compound also showed a Kd in data set [14] of 60 ± 11 µM.

Regarding `Cc1ccc(-c2cc(/C=C/c3cn(C)c4ccccc34)[o+]c(-c3ccc(C)c(C)c3)c2)cc1C.F[B-](F)(F)F` [6jc66-4], the “CC50% (72 h HeLa cells)” value in data set [1] came out at 0.92. Moreover, the “Antibacterial activity (MIC) A. baumanii ATCC 19606” value in data set [2] stood at 64. For the same compound, the “Antibacterial activity (MIC) E. faecium EF1509 (VRE)” value in data set [3] is 2. The Antibacterial activity (MIC) E. aerogenes ATCC 13048 in data set [4] is no less than 64 µg/mL. In [5], the Antibacterial activity (MIC) P. aeruginosa PA01 is no less than 64 µg/mL. In data set [6], the “Antibacterial activity (MIC) P. aeruginosa X13273” value is “>=64”. The compound also registered an Antibacterial activity (MIC) S. aureus MRSA 1094 in data set [7] of 2 µg/mL. For the same compound, the Antibacterial activity (MIC) S. aureus HFH-30123 (MRSA) in data set [8] came out at 2 µg/mL. This compound also displayed an Antibacterial activity (MIC) P. aeruginosa ATCC 27853 in [9] of no less than 64 µg/mL. In addition, the Antibacterial activity (MIC) K. pneumoniae NR-15411 (KPC) in data set [10] was no less than 64 µg/mL. In data set [11], this compound yielded an Antibacterial activity (MIC) K. pneumoniae NR-15410 (KPC) of 64 µg/mL. The “Antibacterial activity (MIC) E. faecium F118 (VRE)” value in [12] is reported as 4. Moreover, the Antibacterial activity (MIC) E. cloacae ATCC 13047 in [13] is no less than 64 µg/mL. In data set [14], this compound displayed a Kd of 27.9 ± 2 µM.

`Cc1ccc(-c2cc(/C=C/c3c[nH]c4ccccc34)[o+]c(-c3ccc(C)cc3)c2)cc1.F[B-](F)(F)F` [6jc-53-2]: the “CC50% (72 h HeLa cells)” value in [1] stood at 1.12. The “Antibacterial activity (MIC) A. baumanii ATCC 19606” value in data set [2] was “>=64”. Also, in [3], the “Antibacterial activity (MIC) E. faecium EF1509 (VRE)” value amounted to 8. For the same compound, the Antibacterial activity (MIC) E. aerogenes ATCC 13048 in [4] was no less than 64 µg/mL. The same compound yielded an Antibacterial activity (MIC) P. aeruginosa PA01 in [5] of no less than 64 µg/mL. Also, the “Antibacterial activity (MIC) P. aeruginosa X13273” value in [6] is on record as “>=64”. Further, the Antibacterial activity (MIC) S. aureus MRSA 1094 in data set [7] turned out to be 2 µg/mL. In data set [8], this compound had an Antibacterial activity (MIC) S. aureus HFH-30123 (MRSA) of 4 µg/mL. In data set [9], this compound came in with an Antibacterial activity (MIC) P. aeruginosa ATCC 27853 of no less than 64 µg/mL. The same compound returned an Antibacterial activity (MIC) K. pneumoniae NR-15411 (KPC) in data set [10] of no less than 64 µg/mL. In data set [11], this compound showed an Antibacterial activity (MIC) K. pneumoniae NR-15410 (KPC) of no less than 64 µg/mL. In addition, the “Antibacterial activity (MIC) E. faecium F118 (VRE)” value in data set [12] is 5.657. In [13], this compound displayed an Antibacterial activity (MIC) E. cloacae ATCC 13047 of no less than 64 µg/mL. For the same compound, in [14], binding was characterised by a dissociation constant (Kd) of 10 ± 3 µM.

Turning to `C(=C\c1cc(-c2ccccc2)cc(-c2ccccc2)[o+]1)/c1cc2c3c(c1)CCCN3CCC2.F[B-](F)(F)F` [6jc-58], the “CC50% (72 h HeLa cells)” value in [1] is “<.78125”. The “Antibacterial activity (MIC) A. baumanii ATCC 19606” value in [2] came to 8. In addition, the “Antibacterial activity (MIC) E. faecium EF1509 (VRE)” value in data set [3] was 4. In addition, the Antibacterial activity (MIC) E. aerogenes ATCC 13048 in data set [4] is 32 µg/mL. The compound also had an Antibacterial activity (MIC) P. aeruginosa PA01 in [5] of 64 µg/mL. Moreover, in data set [6], the “Antibacterial activity (MIC) P. aeruginosa X13273” value is 32. In data set [7], this compound showed an Antibacterial activity (MIC) S. aureus MRSA 1094 of 1.41 µg/mL. The compound also came in with an Antibacterial activity (MIC) S. aureus HFH-30123 (MRSA) in data set [8] of 2 µg/mL. In addition, the Antibacterial activity (MIC) P. aeruginosa ATCC 27853 in [9] is 64 µg/mL. Further, the Antibacterial activity (MIC) K. pneumoniae NR-15411 (KPC) in data set [10] is 64 µg/mL. Also, in [11], the Antibacterial activity (MIC) K. pneumoniae NR-15410 (KPC) was 45.3 µg/mL. Also, in data set [12], the “Antibacterial activity (MIC) E. faecium F118 (VRE)” value worked out at 4. For the same compound, the Antibacterial activity (MIC) E. cloacae ATCC 13047 in data set [13] worked out at 64 µg/mL. Binding in [14] was characterised by a dissociation constant (Kd) of 17 ± 4 µM.

Values taken from article PMC5077133, “Towards Development of Small Molecule Lipid II Inhibitors as Novel Antibiotics” (PLoS ONE, 2016).
